Experimental findings from ChEMBL document CHEMBL1201862, “PubChem BioAssay data set” (2004) are described below.

The GI50 is the concentration at which growth is held to half of that of the control.

Test systems include A549; SNB-19; RPMI-8226; KM12; NCI/ADR-RES; HOP-62; MDA-MB-231; SNB-75; SK-MEL-5; UACC-257; SN12C; RXF 393; M14; SK-OV-3; MCF7; UO-31; T47D; IGROV-1; SF-295.
Holding throughout (assay): DTP human tumour cell line panel, 48 h

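Each compound was tested at five concentrations against cells in 96-well plates for 48 hours. Abbreviation: GI50, concentration required for 50% inhibition of growth.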 Active and inactive are the calls of the source. Cut-off read from the data, not from the text of the source: active = GI50 up to about 1.1 µM and inactive = higher.

For the compound `COc1cccc([C@H]2CC(=O)c3cc4c(cc3N2)OCO4)c1`, the concentration for 50% growth inhibition (GI50) with A549 is 0.296 µM (active); with SNB-19, 0.312 µM (active); in the assay with RPMI-8226 it was 0.579 µM (active); in the assay with KM12, 0.317 µM (active); in the assay with NCI/ADR-RES, 0.296 µM (active); in the assay with HOP-62 it was 0.568 µM (active). The concentration for 50% growth inhibition (GI50) in the assay with MDA-MB-231 was 0.424 µM (active); with SNB-75, > 100 µM (inactive); in the assay on SK-MEL-5, 0.216 µM (active); in the assay with UACC-257, 0.91 µM (active); in the assay with SN12C, 0.394 µM (active); in the assay with RXF 393, 0.171 µM (active). The concentration for 50% growth inhibition (GI50) with M14 is 0.237 µM (active); in the assay on SK-OV-3, 0.419 µM (active); with MCF7, 0.552 µM (active); in the assay with UO-31, 0.485 µM (active); in the assay on T47D, > 100 µM (inactive); in the assay on IGROV-1, 0.622 µM (active). Also, the GI50 in the assay on SF-295 was 0.296 µM (active).
Consider `CCOc1cc2c(cc1O)C(=O)C[C@@H]1[C@@H]2CC[C@]2(C)[C@@H](O)CC[C@@H]12`, for which the GI50 was 0.877 µM (active) with A549; 0.189 µM (active) in the assay with SNB-19; 0.154 µM (active) in the assay on RPMI-8226; 2.69 µM (inactive) with KM12; 0.0955 µM (active) with NCI/ADR-RES; 0.213 µM (active) in the assay on HOP-62. Moreover, the GI50 with MDA-MB-231 is 0.525 µM (active); with SNB-75 it was 0.106 µM (active); in the assay with SK-MEL-5, 0.0634 µM (active); in the assay on UACC-257, 1.21 µM (inactive); with SN12C it was 0.353 µM (active); in the assay with RXF 393, 1.59 µM (inactive). Also, the concentration for 50% growth inhibition (GI50) with M14 was 0.385 µM (active); in the assay on SK-OV-3 it was 0.463 µM (active); in the assay on MCF7, 0.132 µM (active); with UO-31, 0.482 µM (active); in the assay with T47D, 0.13 µM (active); in the assay with IGROV-1, 0.861 µM (active). Besides, the GI50 with SF-295 was 0.158 µM (active).
Take `C/C(=C\COP(=O)(O)OP(=O)(O)O)CC/C=C(\C)CNc1ccccc1`: the GI50 in the assay on A549 was > 50 µM (inactive); with SNB-19, 48.1 µM (inactive); with RPMI-8226, 0.005 µM (active); in the assay on KM12 it was > 50 µM (inactive); in the assay on NCI/ADR-RES it was > 50 µM (inactive); with HOP-62 it was > 50 µM (inactive). In addition, the GI50 is > 50 µM (inactive) in the assay on MDA-MB-231; 27.5 µM (inactive) with SNB-75; 26.9 µM (inactive) with SK-MEL-5; 43 µM (inactive) in the assay with UACC-257; > 50 µM (inactive) in the assay with SN12C; > 50 µM (inactive) in the assay on RXF 393. Further, the GI50 in the assay with M14 was > 50 µM (inactive); in the assay on SK-OV-3 it was > 50 µM (inactive); in the assay on MCF7, > 50 µM (inactive); in the assay on UO-31, > 50 µM (inactive); in the assay with T47D it was 27.4 µM (inactive); with IGROV-1, 11 µM (inactive). Moreover, the GI50 in the assay with SF-295 was > 50 µM (inactive).
As to `CC(C)Oc1c(N(Cc2ccccc2)c2ccccc2C2SCCCS2)c(=O)c1=O`, the GI50 is 5.36 µM (inactive) in the assay with A549; 3.9 µM (inactive) with SNB-19; 4.24 µM (inactive) with RPMI-8226; 3.21 µM (inactive) with KM12; 1.75 µM (inactive) with NCI/ADR-RES; 3.96 µM (inactive) in the assay with HOP-62. Moreover, the GI50 is 5.08 µM (inactive) with MDA-MB-231; 2.51 µM (inactive) with SNB-75; 4.32 µM (inactive) with SK-MEL-5; 6.9 µM (inactive) in the assay on UACC-257; 6.17 µM (inactive) in the assay on SN12C; 4.88 µM (inactive) in the assay with RXF 393. Also, the GI50 in the assay with M14 is 3.65 µM (inactive); in the assay on SK-OV-3, 3.39 µM (inactive); in the assay with MCF7, 4.16 µM (inactive); with UO-31, 6.67 µM (inactive); in the assay with T47D, 5.14 µM (inactive); in the assay on IGROV-1, 3.32 µM (inactive). Further, the GI50 in the assay with SF-295 is 2.2 µM (inactive).
As to `CCOC(=O)c1nc2cc(C(F)(F)F)ccc2nc1Nc1ccc(OC)c(OC)c1`, the GI50 in the assay on A549 was > 100 µM (inactive); in the assay with SNB-19, > 100 µM (inactive); in the assay on RPMI-8226 it was > 100 µM (inactive); in the assay on KM12, > 100 µM (inactive); with NCI/ADR-RES, > 100 µM (inactive); with HOP-62, 32 µM (inactive). Moreover, the GI50 is > 100 µM (inactive) in the assay with MDA-MB-231; 50.9 µM (inactive) in the assay with SNB-75; > 100 µM (inactive) in the assay with SK-MEL-5; > 100 µM (inactive) in the assay with UACC-257; > 100 µM (inactive) in the assay on SN12C; > 100 µM (inactive) with RXF 393. Besides, the GI50 in the assay with M14 is > 100 µM (inactive); in the assay on SK-OV-3 it was > 100 µM (inactive); with MCF7 it was > 100 µM (inactive); in the assay with UO-31, > 100 µM (inactive); in the assay on T47D, 71.3 µM (inactive); in the assay with IGROV-1, > 100 µM (inactive). In the assay on SF-295, the GI50 was > 100 µM (inactive).
Take `CCN(CC)c1ccc2cc(-c3nc(O)c4ccccc4n3)c(=N)oc2c1`: the GI50 in the assay on A549, in the assay on SNB-19, in the assay with RPMI-8226, with KM12, in the assay on NCI/ADR-RES and with HOP-62 was > 100 µM (inactive) throughout. The GI50 in the assay on MDA-MB-231, in the assay on SNB-75, with SK-MEL-5, in the assay on UACC-257, in the assay on SN12C and in the assay with RXF 393 was > 100 µM (inactive) in each case. Further, the GI50 in the assay with M14, in the assay on SK-OV-3, in the assay on MCF7, with UO-31, in the assay with T47D and in the assay on IGROV-1 was > 100 µM (inactive) each time. In addition, the GI50 in the assay on SF-295 was > 100 µM (inactive).
For `N#C[BH2-][n+]1ccc(C(=O)NNCC(F)(F)F)cc1`, the GI50 in the assay with A549, with SNB-19, in the assay with RPMI-8226, in the assay on KM12, in the assay on NCI/ADR-RES and with HOP-62 was > 100 µM (inactive) throughout. Besides, the GI50 with MDA-MB-231, in the assay with SNB-75, in the assay with SK-MEL-5, in the assay with UACC-257, in the assay with SN12C and in the assay with RXF 393 was > 100 µM (inactive) each time. The GI50 in the assay with M14, with SK-OV-3, in the assay on MCF7, in the assay with UO-31, in the assay on T47D and with IGROV-1 was > 100 µM (inactive) each time. Moreover, the GI50 with SF-295 is > 100 µM (inactive).
For the compound `N#CSc1ccc(S(N)(=O)=O)cc1`, the GI50 was > 100 µM (inactive) with A549; > 100 µM (inactive) in the assay with SNB-19; 26.5 µM (inactive) in the assay with RPMI-8226; > 100 µM (inactive) in the assay on KM12; > 100 µM (inactive) with NCI/ADR-RES; > 100 µM (inactive) with HOP-62. Moreover, the GI50 is 44.6 µM (inactive) with MDA-MB-231; > 100 µM (inactive) with SNB-75; 75.2 µM (inactive) in the assay with SK-MEL-5; > 100 µM (inactive) with UACC-257; > 100 µM (inactive) in the assay with SN12C; 26.1 µM (inactive) in the assay with RXF 393. The GI50 with M14 is 21.6 µM (inactive); with SK-OV-3 it was > 100 µM (inactive); in the assay on MCF7, 35.6 µM (inactive); with UO-31 it was 19.4 µM (inactive); in the assay on T47D it was 31.8 µM (inactive); in the assay with IGROV-1 it was 49.7 µM (inactive). In addition, the GI50 in the assay on SF-295 was > 100 µM (inactive).
